According to patent US6936585B2, “Corticotropin releasing factor 2 receptor agonists” (priority 2002, dated 2005):
Peptide text beside a SMILES is read from it.

What was measured:
[1] = target: T1, CRF2R (Homo sapiens, UniProt Q13324); test: CRF2R agonist activation (EC50 / Emax), called comparative CRF binding; type: cell-based; settings: for Emax: read-out: CRF2R Emax; for EC50: read-out: CRF2R EC50
T1 sequence (Q13324 1-411): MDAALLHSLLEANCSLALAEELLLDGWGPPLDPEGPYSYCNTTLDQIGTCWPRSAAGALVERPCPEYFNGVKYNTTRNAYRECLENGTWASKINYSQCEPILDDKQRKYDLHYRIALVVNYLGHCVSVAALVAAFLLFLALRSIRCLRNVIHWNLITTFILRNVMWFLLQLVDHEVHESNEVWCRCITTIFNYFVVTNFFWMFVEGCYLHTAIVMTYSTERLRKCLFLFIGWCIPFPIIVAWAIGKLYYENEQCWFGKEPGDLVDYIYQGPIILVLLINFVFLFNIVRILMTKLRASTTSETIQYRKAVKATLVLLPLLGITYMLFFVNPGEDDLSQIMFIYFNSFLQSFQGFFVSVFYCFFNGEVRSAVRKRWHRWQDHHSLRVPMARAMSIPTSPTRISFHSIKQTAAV
In short: (§1)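 Cells expressing human CRF1R or CRF2R are exposed to peptide or vehicle control, and receptor activation is read as cAMP induction, measured in cell lysates or via a CRE-linked reporter gene.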

[2] = target: T2, CRF1R (Homo sapiens, UniProt P34998); test: CRF1R agonist activation (EC50 / Emax), called comparative CRF binding; type: cell-based; settings: for Emax: read-out: CRF1R Emax; for EC50: read-out: CRF1R EC50
T2 sequence (P34998 24-415): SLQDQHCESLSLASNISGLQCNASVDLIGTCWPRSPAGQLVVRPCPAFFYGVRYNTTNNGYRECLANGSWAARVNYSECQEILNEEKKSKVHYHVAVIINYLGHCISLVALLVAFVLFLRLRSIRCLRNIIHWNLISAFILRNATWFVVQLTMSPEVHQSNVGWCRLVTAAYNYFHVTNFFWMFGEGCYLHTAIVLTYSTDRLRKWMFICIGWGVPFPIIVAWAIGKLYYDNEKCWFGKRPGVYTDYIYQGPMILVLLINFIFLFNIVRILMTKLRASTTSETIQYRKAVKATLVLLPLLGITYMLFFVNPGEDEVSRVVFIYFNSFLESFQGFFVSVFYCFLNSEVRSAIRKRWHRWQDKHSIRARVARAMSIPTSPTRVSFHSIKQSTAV
In short: as §1

## CC[C@H](C)[C@H](N)C(=O)N[C@H](C(=O)N[C@@H](CC(C)C)C(=O)N[C@@H](CO)C(=O)N[C@@H](CC(C)C)C(=O)N[C@@H](CC(=O)O)C(=O)N[C@H](C(=O)N1CCC[C@H]1C(=O)N[C@H](C(=O)NCC(=O)N[C@@H](CC(C)C)C(=O)N[C@@H](CC(C)C)C(=O)N[C@@H](CCC(N)=O)C(=O)N[C@H](C(=O)N[C@@H](CC(C)C)C(=O)N[C@@H](CC(C)C)C(=O)N[C@@H](CCC(=O)O)C(=O)N[C@@H](CCC(N)=O)C(=O)N[C@@H](CCC(=O)O)C(=O)N[C@@H](CCCCN)C(=O)N[C@@H](CCC(N)=O)C(=O)N[C@@H](CCCNC(=N)N)C(=O)N[C@@H](C)C(=O)N[C@@H](C)C(=O)N[C@@H](CCCNC(=N)N)C(=O)N[C@@H](CCC(=O)O)C(=O)N[C@@H](CCC(N)=O)C(=O)N[C@@H](C)C(=O)N[C@H](C(=O)N[C@H](C(=O)N[C@@H](CC(N)=O)C(=O)N[C@@H](C)C(=O)N[C@@H](CCCNC(=N)N)C(=O)N[C@H](C(=O)N[C@@H](CC(C)C)C(=O)N[C@@H](C)C(=O)N[C@@H](CCCNC(=N)N)C(=O)N[C@H](C(N)=O)C(C)C)[C@@H](C)CC)[C@@H](C)O)[C@@H](C)O)[C@@H](C)CC)[C@@H](C)CC)C(C)C)C(C)C [compound 115] (H-IVLSLDVPIGLLQILLEQEKQRAAREQATTNARILARV-NH2; N-terminus assumed)
[1]
  Emax: 98%
[2]
  Emax: 7%

## CC[C@H](C)[C@H](NC(=O)[C@H](CCCNC(=N)N)NC(=O)[C@H](C)NC(=O)[C@H](CC(N)=O)NC(=O)[C@H](CCC(N)=O)NC(=O)[C@H](CCC(=O)O)NC(=O)[C@H](C)NC(=O)[C@H](CCCNC(=N)N)NC(=O)[C@H](CCC(=O)O)NC(=O)[C@H](CCCNC(=N)N)NC(=O)[C@H](CCC(N)=O)NC(=O)[C@H](CO)NC(=O)[C@H](CCC(N)=O)NC(=O)[C@@H](NC(=O)[C@H](CCCCN)NC(=O)[C@H](CCC(=O)O)NC(=O)[C@H](CC(C)C)NC(=O)[C@H](CCC(=O)O)NC(=O)[C@H](CC(C)C)NC(=O)[C@H](CC(C)C)NC(=O)[C@@H](NC(=O)[C@H](CCCNC(=N)N)NC(=O)[C@H](CC(C)C)NC(=O)[C@H](CC(C)C)NC(=O)[C@H](CC(C)C)NC(=O)[C@H](CC(C)C)NC(=O)[C@@H]1CCCN1C(=O)[C@@H](NC(=O)[C@H](CC(=O)O)NC(=O)[C@@H](NC(=O)[C@H](CO)NC(=O)[C@H](CC(C)C)NC(=O)[C@H](CO)NC(=O)[C@@H]1CCCN1C(=O)[C@H](CC(N)=O)NC(=O)[C@@H](N)CC(=O)O)[C@@H](C)CC)C(C)C)[C@@H](C)O)[C@@H](C)O)C(=O)N[C@@H](Cc1ccccc1)C(=O)N[C@@H](C)C(=O)N[C@@H](CCCNC(=N)N)C(=O)N[C@H](C(N)=O)C(C)C [compound 384] (H-DNPSLSIDVPLLLLRTLLELEKTQSQRERAEQNARIFARV-NH2; N-terminus assumed)
[1]
  Emax: 97.3%
[2]
  Emax: 70.3%

## CC[C@H](C)[C@H](NC(=O)[C@H](CCC(N)=O)NC(=O)[C@H](C)NC(=O)[C@H](CC(N)=O)NC(=O)[C@H](CCC(N)=O)NC(=O)[C@H](CCC(=O)O)NC(=O)[C@H](C)NC(=O)[C@H](CCCNC(=N)N)NC(=O)[C@H](CCC(=O)O)NC(=O)[C@H](CCCNC(=N)N)NC(=O)[C@H](CCC(N)=O)NC(=O)[C@H](CO)NC(=O)[C@H](CCC(N)=O)NC(=O)[C@@H](NC(=O)[C@H](CCCCN)NC(=O)[C@H](CCC(=O)O)NC(=O)[C@H](CC(C)C)NC(=O)[C@H](CCC(=O)O)NC(=O)[C@H](CC(C)C)NC(=O)[C@H](CC(C)C)NC(=O)[C@@H](NC(=O)[C@H](CCCNC(=N)N)NC(=O)[C@H](CC(C)C)NC(=O)[C@H](CC(C)C)NC(=O)[C@H](CC(C)C)NC(=O)[C@H](CC(C)C)NC(=O)[C@@H]1CCCN1C(=O)[C@H](CC(C)C)NC(=O)[C@H](CC(=O)O)NC(=O)[C@@H](NC(=O)[C@H](CO)NC(=O)[C@H](CC(C)C)NC(=O)[C@H](CO)NC(=O)[C@@H]1CCCN1C(=O)[C@H](CC(N)=O)NC(=O)[C@@H](N)CC(=O)O)[C@@H](C)CC)[C@@H](C)O)[C@@H](C)O)C(=O)N[C@@H](Cc1ccccc1)C(=O)N[C@@H](C)C(=O)N[C@@H](Cc1c[nH]cn1)C(=O)N[C@H](C(N)=O)C(C)C [compound 324] (H-DNPSLSIDLPLLLLRTLLELEKTQSQRERAEQNAQIFAHV-NH2; N-terminus assumed)
[1]
  EC50: 0.0172 µM
  Emax: 100%
[2]
  EC50: ≥ 1 µM
  Emax: 46.6%

## CC[C@H](C)[C@H](N)C(=O)N[C@H](C(=O)N[C@@H](CC(C)C)C(=O)N[C@@H](CO)C(=O)N[C@@H](CC(C)C)C(=O)N[C@@H](CC(=O)O)C(=O)N[C@H](C(=O)N1CCC[C@H]1C(=O)N[C@H](C(=O)NCC(=O)N[C@@H](CC(C)C)C(=O)N[C@@H](CC(C)C)C(=O)N[C@@H](CCC(N)=O)C(=O)N[C@H](C(=O)N[C@@H](CC(C)C)C(=O)N[C@@H](CC(C)C)C(=O)N[C@@H](CCC(=O)O)C(=O)N[C@@H](CCC(N)=O)C(=O)N[C@H](C(=O)N[C@@H](CCCCN)C(=O)N[C@@H](C)C(=O)N[C@@H](CC(=O)O)C(=O)N[C@@H](CCC(N)=O)C(=O)N[C@@H](CC(C)C)C(=O)N[C@@H](C)C(=O)N[C@@H](CCC(N)=O)C(=O)N[C@@H](CCC(N)=O)C(=O)N[C@@H](C)C(=O)N[C@@H](Cc1c[nH]cn1)C(=O)N[C@@H](CO)C(=O)N[C@@H](CC(N)=O)C(=O)N[C@@H](CCCNC(=N)N)C(=O)N[C@@H](CCCCN)C(=O)N[C@@H](CC(C)C)C(=O)N[C@@H](CC(C)C)C(=O)N[C@@H](CC(=O)O)C(=O)N[C@H](C(=O)N[C@@H](C)C(N)=O)[C@@H](C)CC)[C@@H](C)O)[C@@H](C)CC)[C@@H](C)CC)C(C)C)C(C)C [compound 159] (H-IVLSLDVPIGLLQILLEQTKADQLAQQAHSNRKLLDIA-NH2; N-terminus assumed)
[1]
  Emax: 62%
[2]
  Emax: 9%

## CC[C@H](C)[C@H](NC(=O)[C@H](CCCNC(=N)N)NC(=O)[C@H](C)NC(=O)[C@H](CC(N)=O)NC(=O)[C@H](CCC(N)=O)NC(=O)[C@H](CCC(=O)O)NC(=O)[C@H](C)NC(=O)[C@H](CCCNC(=N)N)NC(=O)[C@H](CCC(=O)O)NC(=O)[C@H](CCCNC(=N)N)NC(=O)[C@H](CCC(N)=O)NC(=O)[C@H](CO)NC(=O)[C@H](CCC(N)=O)NC(=O)[C@@H](NC(=O)[C@H](CCCCN)NC(=O)[C@H](CCC(=O)O)NC(=O)[C@H](CC(C)C)NC(=O)[C@H](CCC(=O)O)NC(=O)[C@H](CC(C)C)NC(=O)[C@H](CC(C)C)NC(=O)[C@@H](NC(=O)[C@H](CCCNC(=N)N)NC(=O)[C@H](CC(C)C)NC(=O)[C@H](CC(C)C)NC(=O)[C@H](Cc1ccccc1)NC(=O)[C@H](CC(C)C)NC(=O)[C@@H]1CCCN1C(=O)[C@H](CC(C)C)NC(=O)[C@H](CC(=O)O)NC(=O)[C@@H](NC(=O)[C@H](CO)NC(=O)[C@H](CC(C)C)NC(=O)[C@H](CO)NC(=O)[C@@H]1CCCN1C(=O)[C@H](CC(N)=O)NC(=O)[C@@H](N)CC(=O)O)[C@@H](C)CC)[C@@H](C)O)[C@@H](C)O)C(=O)N[C@@H](Cc1ccccc1)C(=O)N[C@@H](CC(=O)O)C(=O)N[C@@H](CCCNC(=N)N)C(=O)N[C@H](C(N)=O)C(C)C [compound 336] (H-DNPSLSIDLPLFLLRTLLELEKTQSQRERAEQNARIFDRV-NH2; N-terminus assumed)
[1]
  Emax: 100%
[2]
  Emax: 59.9%

## CC[C@H](C)[C@H](NC(=O)[C@H](CCCNC(=N)N)NC(=O)[C@H](C)NC(=O)[C@H](CC(N)=O)NC(=O)[C@H](CCC(N)=O)NC(=O)[C@H](CCC(=O)O)NC(=O)[C@H](C)NC(=O)[C@H](CCCNC(=N)N)NC(=O)[C@H](CCC(=O)O)NC(=O)[C@H](CCCNC(=N)N)NC(=O)[C@H](CCC(N)=O)NC(=O)[C@H](CO)NC(=O)[C@H](CCC(N)=O)NC(=O)[C@@H](NC(=O)[C@H](CCCCN)NC(=O)[C@H](CCC(=O)O)NC(=O)[C@H](CC(C)C)NC(=O)[C@H](CCC(=O)O)NC(=O)[C@H](CC(C)C)NC(=O)[C@H](CC(C)C)NC(=O)[C@@H](NC(=O)[C@H](CCCNC(=N)N)NC(=O)[C@H](CC(C)C)NC(=O)[C@H](CC(C)C)NC(=O)[C@@H](NC(=O)[C@H](CC(C)C)NC(=O)[C@@H]1CCCN1C(=O)[C@H](CC(C)C)NC(=O)[C@H](CC(=O)O)NC(=O)[C@@H](NC(=O)[C@H](CO)NC(=O)[C@H](CC(C)C)NC(=O)[C@H](CO)NC(=O)[C@@H]1CCCN1C(=O)[C@H](CC(N)=O)NC(=O)[C@@H](N)CC(=O)O)[C@@H](C)CC)[C@@H](C)CC)[C@@H](C)O)[C@@H](C)O)C(=O)N[C@@H](Cc1ccccc1)C(=O)N[C@@H](CC(=O)O)C(=O)N[C@@H](CCCNC(=N)N)C(=O)N[C@H](C(N)=O)C(C)C [compound 337] (H-DNPSLSIDLPLILLRTLLELEKTQSQRERAEQNARIFDRV-NH2; N-terminus assumed)
[1]
  EC50: 0.0239 µM
  Emax: 86.7%
[2]
  EC50: ≥ 1 µM
  Emax: 36.5%
